Results taken from PubChem BioAssay (NCI).
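These data come from cells grown in 96-well plates and exposed to compound for 48 hours at five concentrations. TGI marks complete inhibition of growth.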

How the values were obtained:
Assay in all cases: inhibition of tumour cell growth, NCI panel, 48 h
786-0 renal = tested on: 786-0 renal
A498 renal = tested on: A498 renal
A549 NSCLC = tested on: A549 NSCLC
ACHN renal = tested on: ACHN renal
BT-549 breast = tested on: BT-549 breast
CAKI-1 renal = tested on: CAKI-1 renal
COLO 205 colon = tested on: COLO 205 colon
DU-145 prostate = tested on: DU-145 prostate
EKVX NSCLC = tested on: EKVX NSCLC
HCC-2998 colon = tested on: HCC-2998 colon
HCT-116 colon = tested on: HCT-116 colon
HCT-15 colon = tested on: HCT-15 colon
HL-60(TB) leukemia = tested on: HL-60(TB) leukemia
HOP-62 NSCLC = tested on: HOP-62 NSCLC
HOP-92 NSCLC = tested on: HOP-92 NSCLC
HS 578T breast = tested on: HS 578T breast
HT29 colon = tested on: HT29 colon
IGROV1 ovarian = tested on: IGROV1 ovarian
KM12 colon = tested on: KM12 colon
LOX IMVI melanoma = tested on: LOX IMVI melanoma
M14 melanoma = tested on: M14 melanoma
MALME-3M melanoma = tested on: MALME-3M melanoma
MCF7 breast = tested on: MCF7 breast
MDA-MB-231 breast = tested on: MDA-MB-231 breast
MDA-MB-435 = tested on: MDA-MB-435
MDA-N = tested on: MDA-N
MOLT-4 leukemia = tested on: MOLT-4 leukemia
NCI-H226 lung = tested on: NCI-H226 lung
NCI-H23 lung = tested on: NCI-H23 lung
NCI-H522 lung = tested on: NCI-H522 lung
NCI/ADR-RES ovarian = tested on: NCI/ADR-RES ovarian
OVCAR-3 ovarian = tested on: OVCAR-3 ovarian
OVCAR-4 ovarian = tested on: OVCAR-4 ovarian
OVCAR-5 ovarian = tested on: OVCAR-5 ovarian
OVCAR-8 ovarian = tested on: OVCAR-8 ovarian
PC-3 prostate = tested on: PC-3 prostate
RPMI-8226 leukemia = tested on: RPMI-8226 leukemia
RXF 393 renal = tested on: RXF 393 renal
SF-268 CNS = tested on: SF-268 CNS
SF-295 CNS = tested on: SF-295 CNS
SF-539 CNS = tested on: SF-539 CNS
SK-MEL-28 melanoma = tested on: SK-MEL-28 melanoma
SK-MEL-5 melanoma = tested on: SK-MEL-5 melanoma
SK-OV-3 ovarian = tested on: SK-OV-3 ovarian
SN12C renal = tested on: SN12C renal
SNB-19 CNS = tested on: SNB-19 CNS
SNB-75 CNS = tested on: SNB-75 CNS
SR leukemia = tested on: SR leukemia
SW-620 colon = tested on: SW-620 colon
T-47D breast = tested on: T-47D breast
TK-10 renal = tested on: TK-10 renal
U251 CNS = tested on: U251 CNS
UACC-257 melanoma = tested on: UACC-257 melanoma
UACC-62 melanoma = tested on: UACC-62 melanoma
UO-31 renal = tested on: UO-31 renal
K-562 leukemia = tested on: K-562 leukemia
NCI-H460 lung = tested on: NCI-H460 lung
CCRF-CEM leukemia = tested on: CCRF-CEM leukemia
SK-MEL-2 melanoma = tested on: SK-MEL-2 melanoma

Work on `COc1cc(C)c2c(c1C=O)Oc1c(c(C)c(O)c3c1C(O)OC3=O)OC2=O` (configuration not stated) yielded a TGI (786-0 renal) of over 100 µM, a TGI (A498 renal) of over 100 µM and a TGI (A549 NSCLC) of over 100 µM. The TGI (ACHN renal) was over 100 µM, the TGI (BT-549 breast) was over 100 µM and the TGI (CAKI-1 renal) was over 100 µM. The TGI (COLO 205 colon) was over 100 µM, the TGI (DU-145 prostate) was over 100 µM and the TGI (EKVX NSCLC) was over 100 µM. It also gave a TGI (HCC-2998 colon) of 44.5 µM, a TGI (HCT-116 colon) of over 100 µM and a TGI (HCT-15 colon) of 46.4 µM. The TGI (HL-60(TB) leukemia) was 48.4 µM, the TGI (HOP-62 NSCLC) was over 100 µM and the TGI (HOP-92 NSCLC) was over 100 µM. The TGI (HS 578T breast) was over 100 µM, the TGI (HT29 colon) was over 100 µM and the TGI (IGROV1 ovarian) was 60.9 µM. The TGI (KM12 colon) was 52.3 µM, the TGI (LOX IMVI melanoma) was over 100 µM and the TGI (M14 melanoma) was over 100 µM. The TGI (MALME-3M melanoma) was 52.6 µM, the TGI (MCF7 breast) was 74 µM and the TGI (MDA-MB-231 breast) was 68.3 µM. It also gave a TGI (MDA-MB-435) of over 100 µM, a TGI (MDA-N) of 43.8 µM and a TGI (MOLT-4 leukemia) of 49.5 µM. It also gave a TGI (NCI-H226 lung) of over 100 µM, a TGI (NCI-H23 lung) of 95 µM and a TGI (NCI-H522 lung) of 83.8 µM. It also gave a TGI (NCI/ADR-RES ovarian) of over 100 µM, a TGI (OVCAR-3 ovarian) of over 100 µM and a TGI (OVCAR-4 ovarian) of over 100 µM. The TGI (OVCAR-5 ovarian) was over 100 µM, the TGI (OVCAR-8 ovarian) was over 100 µM and the TGI (PC-3 prostate) was over 100 µM. For the same molecule, the TGI (RPMI-8226 leukemia) was 49.6 µM, the TGI (RXF 393 renal) was 96.7 µM and the TGI (SF-268 CNS) was 68 µM. It also gave a TGI (SF-295 CNS) of over 100 µM, a TGI (SF-539 CNS) of over 100 µM and a TGI (SK-MEL-28 melanoma) of over 100 µM. It also gave a TGI (SK-MEL-5 melanoma) of 61.5 µM, a TGI (SK-OV-3 ovarian) of over 100 µM and a TGI (SN12C renal) of over 100 µM. The TGI (SNB-19 CNS) was 60.4 µM, the TGI (SNB-75 CNS) was over 100 µM and the TGI (SR leukemia) was 60.9 µM. The TGI (SW-620 colon) was over 100 µM, the TGI (T-47D breast) was 65.1 µM and the TGI (TK-10 renal) was over 100 µM. For the same molecule, the TGI (U251 CNS) was over 100 µM, the TGI (UACC-257 melanoma) was over 100 µM and the TGI (UACC-62 melanoma) was 81.7 µM. For the same molecule, the TGI (UO-31 renal) was over 100 µM.
Work on `CO[C@@H]1C[C@H]2[C@@H]3CC[C@H]([C@H](C)CO)[C@@]3(C)CC[C@@H]2[C@@]2(C)CC[C@H]3C[C@]312` yielded a TGI (786-0 renal) of over 100 µM, a TGI (A498 renal) of over 100 µM and a TGI (A549 NSCLC) of over 100 µM. It also gave a TGI (ACHN renal) of over 100 µM, a TGI (BT-549 breast) of 49.9 µM and a TGI (CAKI-1 renal) of over 100 µM. The TGI (COLO 205 colon) was 35.3 µM, the TGI (DU-145 prostate) was over 100 µM and the TGI (EKVX NSCLC) was over 100 µM. The TGI (HCC-2998 colon) was over 100 µM, the TGI (HCT-116 colon) was over 100 µM and the TGI (HCT-15 colon) was over 100 µM. The TGI (HL-60(TB) leukemia) was 47.2 µM, the TGI (HOP-62 NSCLC) was over 100 µM and the TGI (HOP-92 NSCLC) was 63.6 µM. It also gave a TGI (HS 578T breast) of over 100 µM, a TGI (HT29 colon) of 40.8 µM and a TGI (IGROV1 ovarian) of over 100 µM. For the same molecule, the TGI (K-562 leukemia) was over 100 µM, the TGI (KM12 colon) was 35.9 µM and the TGI (LOX IMVI melanoma) was 46.5 µM. For the same molecule, the TGI (M14 melanoma) was over 100 µM, the TGI (MALME-3M melanoma) was over 100 µM and the TGI (MCF7 breast) was 47.8 µM. For the same molecule, the TGI (MDA-MB-231 breast) was over 100 µM, the TGI (MDA-MB-435) was over 100 µM and the TGI (MDA-N) was over 100 µM. For the same molecule, the TGI (MOLT-4 leukemia) was over 100 µM, the TGI (NCI-H226 lung) was over 100 µM and the TGI (NCI-H23 lung) was over 100 µM. For the same molecule, the TGI (NCI-H460 lung) was 74.8 µM, the TGI (NCI-H522 lung) was over 100 µM and the TGI (NCI/ADR-RES ovarian) was over 100 µM. For the same molecule, the TGI (OVCAR-3 ovarian) was over 100 µM, the TGI (OVCAR-4 ovarian) was over 100 µM and the TGI (OVCAR-5 ovarian) was over 100 µM. The TGI (OVCAR-8 ovarian) was over 100 µM, the TGI (PC-3 prostate) was 92.6 µM and the TGI (RPMI-8226 leukemia) was 58 µM. The TGI (RXF 393 renal) was over 100 µM, the TGI (SF-268 CNS) was over 100 µM and the TGI (SF-295 CNS) was 85.9 µM. It also gave a TGI (SF-539 CNS) of over 100 µM, a TGI (SK-MEL-28 melanoma) of over 100 µM and a TGI (SK-MEL-5 melanoma) of 78.1 µM. The TGI (SN12C renal) was over 100 µM, the TGI (SNB-19 CNS) was over 100 µM and the TGI (SNB-75 CNS) was over 100 µM. It also gave a TGI (SR leukemia) of over 100 µM, a TGI (SW-620 colon) of over 100 µM and a TGI (T-47D breast) of over 100 µM. For the same molecule, the TGI (TK-10 renal) was over 100 µM, the TGI (U251 CNS) was 85.4 µM and the TGI (UACC-257 melanoma) was 86.5 µM. For the same molecule, the TGI (UO-31 renal) was over 100 µM.
`CN(/N=C(\C(=O)O)c1ccccc1)C1=NCCCCN1` gave a TGI (786-0 renal) of over 100 µM, a TGI (A498 renal) of over 100 µM and a TGI (A549 NSCLC) of over 100 µM. The TGI (ACHN renal) was over 100 µM, the TGI (BT-549 breast) was over 100 µM and the TGI (CAKI-1 renal) was over 100 µM. It also gave a TGI (CCRF-CEM leukemia) of over 100 µM, a TGI (COLO 205 colon) of over 100 µM and a TGI (DU-145 prostate) of over 100 µM. For the same molecule, the TGI (EKVX NSCLC) was over 100 µM, the TGI (HCC-2998 colon) was over 100 µM and the TGI (HCT-116 colon) was over 100 µM. The TGI (HCT-15 colon) was over 100 µM, the TGI (HL-60(TB) leukemia) was over 100 µM and the TGI (HOP-62 NSCLC) was over 100 µM. For the same molecule, the TGI (HOP-92 NSCLC) was over 100 µM, the TGI (HS 578T breast) was over 100 µM and the TGI (HT29 colon) was over 100 µM. It also gave a TGI (IGROV1 ovarian) of over 100 µM, a TGI (K-562 leukemia) of over 100 µM and a TGI (KM12 colon) of over 100 µM. It also gave a TGI (LOX IMVI melanoma) of over 100 µM, a TGI (MALME-3M melanoma) of over 100 µM and a TGI (MCF7 breast) of over 100 µM. The TGI (MDA-MB-231 breast) was over 100 µM, the TGI (MDA-MB-435) was over 100 µM and the TGI (MDA-N) was over 100 µM. It also gave a TGI (MOLT-4 leukemia) of over 100 µM, a TGI (NCI-H226 lung) of over 100 µM and a TGI (NCI-H23 lung) of over 100 µM. For the same molecule, the TGI (NCI-H460 lung) was over 100 µM, the TGI (NCI-H522 lung) was over 100 µM and the TGI (NCI/ADR-RES ovarian) was over 100 µM. The TGI (OVCAR-3 ovarian) was over 100 µM, the TGI (OVCAR-4 ovarian) was over 100 µM and the TGI (OVCAR-5 ovarian) was over 100 µM. For the same molecule, the TGI (OVCAR-8 ovarian) was over 100 µM, the TGI (PC-3 prostate) was over 100 µM and the TGI (RPMI-8226 leukemia) was over 100 µM. It also gave a TGI (RXF 393 renal) of over 100 µM, a TGI (SF-268 CNS) of over 100 µM and a TGI (SF-295 CNS) of over 100 µM. For the same molecule, the TGI (SF-539 CNS) was over 100 µM, the TGI (SK-MEL-2 melanoma) was over 100 µM and the TGI (SK-MEL-28 melanoma) was over 100 µM. It also gave a TGI (SK-MEL-5 melanoma) of over 100 µM, a TGI (SK-OV-3 ovarian) of over 100 µM and a TGI (SN12C renal) of over 100 µM. The TGI (SNB-75 CNS) was over 100 µM, the TGI (SR leukemia) was over 100 µM and the TGI (SW-620 colon) was over 100 µM. The TGI (T-47D breast) was over 100 µM, the TGI (TK-10 renal) was over 100 µM and the TGI (U251 CNS) was over 100 µM. For the same molecule, the TGI (UACC-257 melanoma) was over 100 µM, the TGI (UACC-62 melanoma) was over 100 µM and the TGI (UO-31 renal) was over 100 µM.
